Laboratory results published in patent publication US20250122225A1, “MASP-2 INHIBITORS AND METHODS OF USE” (Omeros Corporation, priority 2023, published 2025).
Structures can show the parent of a compound that is named as a salt.

Legend:
[1] = target: T1, human α-thrombin (Homo sapiens, UniProt P00734); assay: Enzymatic assay for thrombin (fluorogenic peptide substrate Boc-VPR-AMC); assay type: biochemical
T1 construct: enzyme (human α-thrombin (BioPharm® Lab.)) in assay buffer; purchased BioPharm® Lab
Procedure, shortened: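 Assay conditions kept the reaction linear in time, enzyme and substrate, so IC50 approximated Ki apart from tight- or slow-binding cases. Boc-VPR-AMC cleavage by human α-thrombin proceeded 20 min at room temperature in Hepes pH 7.4/NaCl/Tween 20 buffer, then was acid-quenched and read by fluorescence.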

[2] = target: T2, MASP-2 (CCP1-CCP2-SP) (Homo sapiens, UniProt O00187); assay: Enzymatic assay for MASP-2 inhibitory activity (fluorogenic substrate); assay type: biochemical
T2 construct: 15 μL of Enzyme MASP-2 (CCP1-CCP2-SP) in Assay Buffer
T2 sequence (O00187 445-686 limits assumed): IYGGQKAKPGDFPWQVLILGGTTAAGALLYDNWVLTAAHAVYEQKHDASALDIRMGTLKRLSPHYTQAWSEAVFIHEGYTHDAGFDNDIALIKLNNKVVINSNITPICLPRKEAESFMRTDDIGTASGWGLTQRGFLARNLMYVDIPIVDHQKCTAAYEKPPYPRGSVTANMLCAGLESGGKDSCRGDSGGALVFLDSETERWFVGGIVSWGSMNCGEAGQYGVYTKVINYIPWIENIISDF
T2 sequence (O00187 287-444 partner limits assumed): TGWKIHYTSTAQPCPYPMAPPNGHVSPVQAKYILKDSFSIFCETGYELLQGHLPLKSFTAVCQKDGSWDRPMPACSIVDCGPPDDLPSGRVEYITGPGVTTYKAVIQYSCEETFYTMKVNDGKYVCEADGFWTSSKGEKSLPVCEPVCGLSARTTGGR
Procedure, shortened: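 Fluorescence was normalized between no-enzyme and DMSO-only controls to derive % activity, with IC50 taken as equivalent to Ki except for tight-binding inhibitors. Reactions ran 20 min at room temperature in HEPES pH 7.4/NaCl/Tween 20 buffer, using the C2-derived fluorogenic substrate, before acetic acid stop.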

Structure (SMILES)	Ki [1]	Ki [2]
Cc1cc(C)cc(CNc2ncc3n(c2=O)[C@H](C(=O)NCc2cc4cnccc4[nH]2)CC32CC2)c1 [Compound 123, (S)-N-((1H-pyrrolo[3,2-c]pyridin-2-yl)methyl)-3′-((3,5-dimethylbenzyl)amino)-4′-oxo-6′,7′-dihydro-4′H-spiro[cyclopropane-1,8′-pyrrolo[1,2-a]pyrazine]-6′-carboxamide trifluoroacetate]	0.5 to 2.5 µM	< 0.5 µM
Cc1cc(C)cc(CNc2ncc3n(c2=O)[C@H](C(=O)NCc2cc4cnc(C)cc4[nH]2)CC32CC2)c1 [Compound 124, (S)-3′-((3,5-dimethylbenzyl)amino)-N-((6-methyl-1H-pyrrolo[3,2-c]pyridin-2-yl)methyl)-4′-oxo-6′,7′-dihydro-4′H-spiro[cyclopropane-1,8′-pyrrolo[1,2-a]pyrazine]-6′-carboxamide trifluoroacetate]	> 25 µM	< 0.5 µM
O=C(NCc1cc2cnccc2[nH]1)[C@@H]1CC2(CC2)c2cnc(NCc3ccccc3)c(=O)n21 [Compound 125, (S)-N-((1H-pyrrolo[3,2-c]pyridin-2-yl)methyl)-3′-(benzylamino)-4′-oxo-6′,7′-dihydro-4′H-spiro[cyclopropane-1,8′-pyrrolo[1,2-a]pyrazine]-6′-carboxamide]	2.5 to 10 µM	< 0.5 µM
Cc1cc(C)cc(CNc2ncc3n(c2=O)[C@H](C(=O)NCc2cc4c(s2)CNC4)CC32CC2)c1 [Compound 126, (S)—N-((5,6-dihydro-4H-thieno[2,3-c]pyrrol-2-yl)methyl)-3′-((3,5-dimethylbenzyl)amino)-4′-oxo-6′,7′-dihydro-4′H-spiro[cyclopropane-1,8′-pyrrolo[1,2-a]pyrazine]-6′-carboxamide]	0.5 to 2.5 µM	< 0.5 µM
O=C(NCc1cc2c(s1)CNC2)[C@@H]1CC2(CC2)c2cnc(NCc3ccccc3)c(=O)n21 [Compound 127, (S)-3′-(benzylamino)-N-((5,6-dihydro-4H-thieno[2,3-c]pyrrol-2-yl)methyl)-4′-oxo-6′,7′-dihydro-4′H-spiro[cyclopropane-1,8′-pyrrolo[1,2-a]pyrazine]-6′-carboxamide trifluoroacetate]	2.5 to 10 µM	< 0.5 µM
O=C(NCc1cc2cnccc2[nH]1)[C@@H]1CC2(CC2)c2c(Cl)nc(NCc3ccccc3)c(=O)n21 [Compound 128, (S)—N-((1H-pyrrolo[3,2-c]pyridin-2-yl)methyl)-3′-(benzylamino)-1′-chloro-4′-oxo-6′,7′-dihydro-4′H-spiro[cyclopropane-1,8′-pyrrolo[1,2-a]pyrazine]-6′-carboxamide]	2.5 to 10 µM	< 0.5 µM
CC[C@H]1C[C@@H](C(=O)NCc2cc3cnc(C)cc3[nH]2)n2c1cnc(NCc1cc(C)cc(C)c1)c2=O [Compound 129, (6S,8S)-3-((3,5-dimethylbenzyl)amino)-8-ethyl-N-((6-methyl-1H-pyrrolo[3,2-c]pyridin-2-yl)methyl)-4-oxo-4,6,7,8-tetrahydropyrrolo[1,2-a]pyrazine-6-carboxamide]	10 to 25 µM	< 0.5 µM
C[C@H]1C[C@@H](C(=O)NCc2cc3cnccc3[nH]2)n2c1c(Cl)nc(NCc1ccccc1)c2=O [Compound 130, (6S,8S)—N-((1H-pyrrolo[3,2-c]pyridin-2-yl)methyl)-3-(benzylamino)-1-chloro-8-methyl-4-oxo-4,6,7,8-tetrahydropyrrolo[1,2-a]pyrazine-6-carboxamide]	> 25 µM	< 0.5 µM
Cc1cc(C)cc(CNc2nc(Cl)c3n(c2=O)[C@H](C(=O)NCc2cc4cnccc4[nH]2)C[C@@H]3C)c1 [Compound 132, (6S,8S)-N-((1H-pyrrolo[3,2-c]pyridin-2-yl)methyl)-1-chloro-3-((3,5-dimethylbenzyl)amino)-8-methyl-4-oxo-4,6,7,8-tetrahydropyrrolo[1,2-a]pyrazine-6-carboxamide]	> 25 µM	< 0.5 µM
O=C(NCc1cc2cnccc2[nH]1)[C@@H]1CCc2c(Cl)nc(NCc3cccc(C4CC4)c3)c(=O)n21 [Compound 133, (S)-N-((1H-pyrrolo[3,2-c]pyridin-2-yl)methyl)-1-chloro-3-((3-cyclopropylbenzyl)amino)-4-oxo-4,6,7,8-tetrahydropyrrolo[1,2-a]pyrazine-6-carboxamide]	2.5 to 10 µM	< 0.5 µM
CC[C@H]1C[C@@H](C(=O)NCc2ccc(N)nc2C)n2c1c(Cl)nc(NCc1ccccc1)c2=O [Compound 134, (6S,8S)-N-((6-amino-2-methylpyridin-3-yl)methyl)-3-(benzylamino)-1-chloro-8-ethyl-4-oxo-4,6,7,8-tetrahydropyrrolo[1,2-a]pyrazine-6-carboxamide]	0.5 to 2.5 µM	< 0.5 µM
Cc1nc(N)ccc1CNC(=O)[C@H]1CCc2c(Cl)nc(NCc3ccccc3)c(=O)n21 [Compound 135, (R)-N-((6-amino-2-methylpyridin-3-yl)methyl)-3-(benzylamino)-1-chloro-4-oxo-4,6,7,8-tetrahydropyrrolo[1,2-a]pyrazine-6-carboxamide]	2.5 to 10 µM	< 0.5 µM

Other lines, results leading:

Ki [1]	Ki [2]	Structure (SMILES)
0.5 to 2.5 µM	< 0.5 µM	Cc1nc(N)ccc1CNC(=O)[C@@H]1CCc2c(Cl)nc(NCc3cccnc3)c(=O)n21 [Compound 136, (S)-N-((6-amino-2-methylpyridin-3-yl)methyl)-1-chloro-4-oxo-3-((pyridin-3-ylmethyl)amino)-4,6,7,8-tetrahydropyrrolo[1,2-a]pyrazine-6-carboxamide]
> 25 µM	< 0.5 µM	COc1cc(C)cc(CNc2ncc3n(c2=O)[C@H](C(=O)NCc2cc4cnc(C)cc4[nH]2)C[C@@H]3Cc2ccccc2)c1 [Compound 137, (6S,8S)-8-benzyl-3-((3-methoxy-5-methylbenzyl)amino)-N-((6-methyl-1H-pyrrolo[3,2-c]pyridin-2-yl)methyl)-4-oxo-4,6,7,8-tetrahydropyrrolo[1,2-a]pyrazine-6-carboxamide]
< 0.5 µM	< 0.5 µM	COc1cc(C)cc(CNc2ncc3n(c2=O)[C@H](C(=O)NCc2ccc(N)nc2C)C[C@@H]3Cc2ccccc2)c1 [Compound 138, (6S,8S)-N-((6-amino-2-methylpyridin-3-yl)methyl)-8-benzyl-3-((3-methoxy-5-methylbenzyl)amino)-4-oxo-4,6,7,8-tetrahydropyrrolo[1,2-a]pyrazine-6-carboxamide]
10 to 25 µM	< 0.5 µM	Cc1cc2[nH]c(CNC(=O)[C@@H]3C[C@H](Cc4ccccc4)c4cnc(NC5CCC5)c(=O)n43)cc2cn1 [Compound 139, (6S,8S)-8-benzyl-3-(cyclobutylamino)-N-((6-methyl-1H-pyrrolo[3,2-c]pyridin-2-yl)methyl)-4-oxo-4,6,7,8-tetrahydropyrrolo[1,2-a]pyrazine-6-carboxamide]
0.5 to 2.5 µM	< 0.5 µM	COc1cc(C)cc(CNc2ncc3n(c2=O)[C@H](C(=O)NCc2cc4cnccc4[nH]2)C[C@@H]3Cc2ccccc2)c1 [Compound 141, (6S,8S)-N-((1H-pyrrolo[3,2-c]pyridin-2-yl)methyl)-8-benzyl-3-((3-methoxy-5-methylbenzyl)amino)-4-oxo-4,6,7,8-tetrahydropyrrolo[1,2-a]pyrazine-6-carboxamide]
2.5 to 10 µM	< 0.5 µM	O=C(NCc1cc2cnccc2[nH]1)[C@@H]1C[C@H](Cc2ccccc2)c2cnc(NC3CCC3)c(=O)n21 [Compound 142, (6S,8S)-N-((1H-pyrrolo[3,2-c]pyridin-2-yl)methyl)-8-benzyl-3-(cyclobutylamino)-4-oxo-4,6,7,8-tetrahydropyrrolo[1,2-a]pyrazine-6-carboxamide]
> 25 µM	< 0.5 µM	O=C(NCc1cc2cnccc2[nH]1)[C@@H]1CCc2c(Cl)nc(NCc3cccc(-c4ccccc4)c3)c(=O)n21 [Compound 143, (S)—N-((1H-pyrrolo[3,2-c]pyridin-2-yl)methyl)-3-(([1,1′-biphenyl]-3-ylmethyl)amino)-1-chloro-4-oxo-4,6,7,8-tetrahydropyrrolo[1,2-a]pyrazine-6-carboxamide]
2.5 to 10 µM	< 0.5 µM	N#Cc1cccc(CNc2nc(Cl)c3n(c2=O)[C@H](C(=O)NCc2cc4cnccc4[nH]2)CC3)c1 [Compound 144, (S)-N-((1H-pyrrolo[3,2-c]pyridin-2-yl)methyl)-1-chloro-3-((3-cyanobenzyl)amino)-4-oxo-4,6,7,8-tetrahydropyrrolo[1,2-a]pyrazine-6-carboxamide]
> 25 µM	< 0.5 µM	O=C(NCc1cc2cnccc2[nH]1)[C@@H]1CCc2c(Cl)nc(NCC3CCc4ccccc4C3)c(=O)n21 (stereo partly drawn) [Compound 145, (6S)-N-((1H-pyrrolo[3,2-c]pyridin-2-yl)methyl)-1-chloro-4-oxo-3-(((1,2,3,4-tetrahydronaphthalen-2-yl)methyl)amino)-4,6,7,8-tetrahydropyrrolo[1,2-a]pyrazine-6-carboxamide]
10 to 25 µM	0.5 to 2.5 µM	Cc1nc(N)ccc1CNC(=O)[C@@H]1CCc2c(Cl)nc(NCC3COC3)c(=O)n21 [Compound 146, (S)-N-((6-amino-2-methylpyridin-3-yl)methyl)-1-chloro-3-((oxetan-3-ylmethyl)amino)-4-oxo-4,6,7,8-tetrahydropyrrolo[1,2-a]pyrazine-6-carboxamide]
2.5 to 10 µM	< 0.5 µM	O=C(NCc1cc2cnccc2[nH]1)[C@@H]1CCc2cnc(NCc3cccc(-c4ccccc4)c3)c(=O)n21 [Compound 147, (S)—N-((1H-pyrrolo[3,2-c]pyridin-2-yl)methyl)-3-(([1,1′-biphenyl]-3-ylmethyl)amino)-4-oxo-4,6,7,8-tetrahydropyrrolo[1,2-a]pyrazine-6-carboxamide]
0.5 to 2.5 µM	< 0.5 µM	O=C(NCc1cc2cnccc2[nH]1)[C@@H]1CCc2cnc(NCC3CCc4ccccc4C3)c(=O)n21 (stereo partly drawn) [Compound 148]
